ChEMBL document CHEMBL4765323, “Design, synthesis, and biological evaluation of novel miconazole analogues containing selenium as potent antifungal agents” (Eur J Med Chem, 2020)
Values after ≈ are worked out from the molar mass of the structure shown.

Key:
Candida albicans [1] = assay: Antifungal activity against Candida albicans 901 measured after 24 hrs by micro-broth dilution assay; type: functional
Cryptococcus neoformans = assay: Antifungal activity against Cryptococcus neoformans CGMCC2.3161 measured after 72 hrs by micro-broth dilution assay; type: functional
Candida albicans [2] = assay: Antifungal activity against Candida albicans CPCC400616 measured after 24 hrs by micro-broth dilution assay; type: functional
Candida parapsilosis = assay: Antifungal activity against Candida parapsilosis ATCC 22019 measured after 24 hrs by micro-broth dilution assay; type: functional; conditions: Lodderomyces parapsilosis
Candida albicans [3] = assay: Antifungal activity against fluconazole-resistant Candida albicans strain 904 measured after 24 hrs by micro-broth dilution assay; type: functional
Candida albicans [4] = assay: Fungicidal activity against Candida albicans CPCC400616 measured after 48 hrs; type: functional
Pichia kudriavzevii = assay: Antifungal activity against Candida krusei AS 2.1045 measured after 24 hrs by micro-broth dilution assay; type: functional
[Candida] zeylanoides = Antifungal activity against Candida zeylanoides CMGCC2.3739 measured after 24 hrs by micro-broth dilution assay; type: functional; conditions: Dujonia zeylanoides
Candida albicans [5] = assay: Antifungal activity against fluconazole-resistant Candida albicans 17 measured after 24 hrs by micro-broth dilution assay; type: functional
Aspergillus fumigatus = assay: Antifungal activity against Aspergillus fumigatus CGMCC 3.7795 measured after 72 hrs by micro-broth dilution assay; type: functional
[6] = Ratio of hemolysis activity in rabbit RBC to MIC for Candida albicans; type: toxicity; conditions: rabbit red blood cells (RBC)
[7] = Ratio of MFC for fungicidal activity against Candida albicans CPCC400616 to MIC for Antifungal activity against Candida albicans CPCC400616; type: functional; conditions: time 24 hrs
Nakaseomyces glabratus = assay: Antifungal activity against clinical isolate Candida glabrata measured after 24 hrs by micro-broth dilution assay; type: functional
Candida albicans [8] = assay: Antifungal activity against fluconazole-resistant Candida albicans CaR measured after 24 hrs by micro-broth dilution assay; type: functional
Candida albicans [9] = assay: Antifungal activity against fluconazole-resistant Candida albicans 632 measured after 24 hrs by micro-broth dilution assay; type: functional
Candida albicans [10] = assay: Antifungal activity against Candida albicans ATCC SC5314 measured after 24 hrs by micro-broth dilution assay; type: functional

Row | Compound | MIC (Candida albicans [1]) [µg/mL] | MIC (Cryptococcus neoformans) [µg/mL] | MIC (Candida albicans [2]) [µg/mL] | MIC (Candida parapsilosis) [µg/mL] | MIC (Candida albicans [3]) [µg/mL] | MIC (Candida albicans [4]) [µg/mL] | MIC (Pichia kudriavzevii) [µg/mL] | MIC ([Candida] zeylanoides) [µg/mL] | MIC (Candida albicans [5]) [µg/mL] | MIC (Aspergillus fumigatus) [µg/mL] | selectivity ratio [6] | MFC/MIC ratio [7] | MIC (Nakaseomyces glabratus) [µg/mL] | MIC (Candida albicans [8]) [µg/mL] | MIC (Candida albicans [9]) [µg/mL] | MIC (Candida albicans [10]) [µg/mL]
1 | Fc1ccc(C(Cn2ccnc2)[Se]Cc2ccccc2Br)c(F)c1 (configuration not stated) | 0.25 (≈ 0.548 µM) | 0.25 (≈ 0.548 µM) | 0.02 (≈ 0.0438 µM) | 0.02 (≈ 0.0438 µM) | 0.06 (≈ 0.132 µM) | 0.125 (≈ 0.274 µM) | 0.06 (≈ 0.132 µM) | 0.25 (≈ 0.548 µM) | 0.06 (≈ 0.132 µM) | 1 (≈ 2.19 µM) | 512 | 8 | 1 (≈ 2.19 µM) | 0.13 (≈ 0.285 µM) | 0.25 (≈ 0.548 µM) | 0.01 (≈ 0.0219 µM)
2 | Clc1ccc(C(Cn2ccnc2)[Se]Cc2ccccc2Br)c(Cl)c1 (configuration not stated) | 1 (≈ 2.04 µM) | 0.5 (≈ 1.02 µM) | 0.02 (≈ 0.0409 µM) | 0.03 (≈ 0.0613 µM) | 0.25 (≈ 0.511 µM) | 0.25 (≈ 0.511 µM) | 0.25 (≈ 0.511 µM) | 0.25 (≈ 0.511 µM) | 0.5 (≈ 1.02 µM) | 1 (≈ 2.04 µM) | – | 16 | 0.5 (≈ 1.02 µM) | 0.5 (≈ 1.02 µM) | 1 (≈ 2.04 µM) | 0.01 (≈ 0.0204 µM)
3 | Cc1ccc(C[Se]C(Cn2ccnc2)c2ccc(Cl)cc2Cl)cc1 (configuration not stated) | 64 (≈ 151 µM) | 0.25 (≈ 0.589 µM) | 0.03 (≈ 0.0707 µM) | 1 (≈ 2.36 µM) | > 128 | – | 4 (≈ 9.43 µM) | 16 (≈ 37.7 µM) | 32 (≈ 75.4 µM) | 2 (≈ 4.71 µM) | – | – | 1 (≈ 2.36 µM) | 16 (≈ 37.7 µM) | 128 (≈ 302 µM) | 0.13 (≈ 0.306 µM)
4 | COc1cc(C[Se]C(Cn2ccnc2)c2ccc(Cl)cc2Cl)cc(OC)c1 (configuration not stated) | 4 (≈ 8.51 µM) | 0.5 (≈ 1.06 µM) | 0.13 (≈ 0.276 µM) | 0.5 (≈ 1.06 µM) | 128 (≈ 272 µM) | – | 8 (≈ 17 µM) | 1 (≈ 2.13 µM) | 32 (≈ 68 µM) | 1 (≈ 2.13 µM) | – | – | 0.25 (≈ 0.532 µM) | 4 (≈ 8.51 µM) | 32 (≈ 68 µM) | 0.13 (≈ 0.276 µM)
5 | Fc1ccc(C(Cn2ccnc2)[Se]Cc2ccc(Cl)cc2)c(F)c1 (configuration not stated) | 8 (≈ 19.4 µM) | 0.5 (≈ 1.21 µM) | 0.5 (≈ 1.21 µM) | 0.13 (≈ 0.316 µM) | 2 (≈ 4.86 µM) | – | 0.5 (≈ 1.21 µM) | 1 (≈ 2.43 µM) | 8 (≈ 19.4 µM) | 1 (≈ 2.43 µM) | – | – | 1 (≈ 2.43 µM) | 16 (≈ 38.9 µM) | 64 (≈ 155 µM) | 0.03 (≈ 0.0729 µM)
6 | Fc1cccc(C[Se]C(Cn2ccnc2)c2ccc(F)cc2F)c1 (configuration not stated) | 8 (≈ 20.2 µM) | 0.5 (≈ 1.26 µM) | 0.03 (≈ 0.0759 µM) | 0.25 (≈ 0.632 µM) | 1 (≈ 2.53 µM) | > 128 | 0.13 (≈ 0.329 µM) | 1 (≈ 2.53 µM) | 0.06 (≈ 0.152 µM) | 2 (≈ 5.06 µM) | – | – | 0.5 (≈ 1.26 µM) | 4 (≈ 10.1 µM) | 8 (≈ 20.2 µM) | 0.03 (≈ 0.0759 µM)
7 | Cc1ccc(C[Se]C(Cn2ccnc2)c2ccc(F)cc2F)cc1C (configuration not stated) | 128 (≈ 316 µM) | 0.5 (≈ 1.23 µM) | 0.5 (≈ 1.23 µM) | 1 (≈ 2.47 µM) | > 128 | – | 8 (≈ 19.7 µM) | 1 (≈ 2.47 µM) | 64 (≈ 158 µM) | 2 (≈ 4.93 µM) | – | – | 1 (≈ 2.47 µM) | 128 (≈ 316 µM) | > 128 | 0.13 (≈ 0.321 µM)
8 | Fc1ccc(C(Cn2ccnc2)[Se]Cc2ccccc2Cl)c(F)c1 (configuration not stated) | 1 (≈ 2.43 µM) | 0.5 (≈ 1.21 µM) | 0.25 (≈ 0.607 µM) | 0.06 (≈ 0.146 µM) | 0.5 (≈ 1.21 µM) | – | 0.25 (≈ 0.607 µM) | 0.25 (≈ 0.607 µM) | 1 (≈ 2.43 µM) | 2 (≈ 4.86 µM) | – | – | 1 (≈ 2.43 µM) | 2 (≈ 4.86 µM) | 0.5 (≈ 1.21 µM) | 0.01 (≈ 0.0243 µM)
9 | Clc1ccc(C[Se]C(Cn2ccnc2)c2ccc(Cl)cc2Cl)c(Cl)c1 (configuration not stated) | 32 (≈ 66.8 µM) | 0.5 (≈ 1.04 µM) | 0.06 (≈ 0.125 µM) | 2 (≈ 4.17 µM) | 8 (≈ 16.7 µM) | – | 2 (≈ 4.17 µM) | 2 (≈ 4.17 µM) | 16 (≈ 33.4 µM) | 0.5 (≈ 1.04 µM) | – | – | 0.25 (≈ 0.522 µM) | 128 (≈ 267 µM) | 64 (≈ 134 µM) | 0.06 (≈ 0.125 µM)
10 | Clc1ccc(C(Cn2ccnc2)[Se]Cc2ccc(Br)cc2)c(Cl)c1 (configuration not stated) | 64 (≈ 131 µM) | 0.5 (≈ 1.02 µM) | 0.25 (≈ 0.511 µM) | 4 (≈ 8.18 µM) | 128 (≈ 262 µM) | – | 32 (≈ 65.4 µM) | 2 (≈ 4.09 µM) | 8 (≈ 16.4 µM) | 1 (≈ 2.04 µM) | – | – | 0.5 (≈ 1.02 µM) | 128 (≈ 262 µM) | > 128 | 0.06 (≈ 0.123 µM)
11 | Fc1ccc(C(Cn2ccnc2)[Se]Cc2ccc(Cl)cc2Cl)c(F)c1 (configuration not stated) | 0.5 (≈ 1.12 µM) | 0.25 (≈ 0.56 µM) | 0.03 (≈ 0.0672 µM) | 0.03 (≈ 0.0672 µM) | 2 (≈ 4.48 µM) | 0.125 (≈ 0.28 µM) | 0.06 (≈ 0.134 µM) | 0.5 (≈ 1.12 µM) | 1 (≈ 2.24 µM) | 0.5 (≈ 1.12 µM) | 64 | 4 | 1 (≈ 2.24 µM) | 16 (≈ 35.9 µM) | 2 (≈ 4.48 µM) | 0.13 (≈ 0.291 µM)
